Data published in ChEMBL document CHEMBL1130226, “2,4-Diaminothieno[2,3-d]pyrimidine lipophilic antifolates as inhibitors of Pneumocystis carinii and Toxoplasma gondii dihydrofolate reductase” (J Med Chem, 1997).

Assays:
[1] = target: T1, Bifunctional dihydrofolate reductase-thymidylate synthase (Toxoplasma gondii, UniProt Q07422)
T1 sequence (Q07422 whole entry): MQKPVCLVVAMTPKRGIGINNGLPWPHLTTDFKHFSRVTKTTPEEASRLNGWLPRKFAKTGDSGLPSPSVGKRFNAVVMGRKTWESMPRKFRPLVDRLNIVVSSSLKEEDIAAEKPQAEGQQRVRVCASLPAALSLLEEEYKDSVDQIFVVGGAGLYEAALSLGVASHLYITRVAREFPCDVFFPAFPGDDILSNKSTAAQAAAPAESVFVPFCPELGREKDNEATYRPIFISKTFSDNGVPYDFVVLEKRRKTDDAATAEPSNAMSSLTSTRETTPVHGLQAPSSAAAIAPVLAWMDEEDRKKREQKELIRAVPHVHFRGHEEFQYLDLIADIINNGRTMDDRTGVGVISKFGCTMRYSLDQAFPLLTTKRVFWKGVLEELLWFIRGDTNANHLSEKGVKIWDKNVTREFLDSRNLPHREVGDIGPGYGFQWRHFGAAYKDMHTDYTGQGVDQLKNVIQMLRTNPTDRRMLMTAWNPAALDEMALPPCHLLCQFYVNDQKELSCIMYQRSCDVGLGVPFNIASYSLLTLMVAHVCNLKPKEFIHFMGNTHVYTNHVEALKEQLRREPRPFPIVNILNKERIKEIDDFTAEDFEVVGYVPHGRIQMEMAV
Description: Inhibition of Toxoplasma gondii Dihydrofolate Reductase

Dihydrofolate reductase [2] = target: T2, Dihydrofolate reductase (Pneumocystis carinii, UniProt P16184)
T2 sequence (P16184 whole entry): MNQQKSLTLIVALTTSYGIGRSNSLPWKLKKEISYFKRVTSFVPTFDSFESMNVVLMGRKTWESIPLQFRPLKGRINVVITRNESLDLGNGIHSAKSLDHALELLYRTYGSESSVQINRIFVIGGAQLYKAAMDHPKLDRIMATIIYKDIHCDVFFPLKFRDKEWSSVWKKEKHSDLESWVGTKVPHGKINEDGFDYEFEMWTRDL
Description: Inhibition of Pneumocystis carinii Dihydrofolate Reductase

Dihydrofolate reductase [3] = target: T3, Dihydrofolate reductase (Rattus norvegicus, UniProt Q920D2)
T3 sequence (Q920D2 whole entry): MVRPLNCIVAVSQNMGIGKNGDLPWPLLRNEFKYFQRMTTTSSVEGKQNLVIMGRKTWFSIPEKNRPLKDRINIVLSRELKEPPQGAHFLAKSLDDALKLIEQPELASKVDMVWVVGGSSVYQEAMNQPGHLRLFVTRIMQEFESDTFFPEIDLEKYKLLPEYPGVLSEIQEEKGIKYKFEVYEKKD
Description: Inhibition of rat liver Dihydrofolate Reductase

[4] = Selectivity ratio of IC50 (rat liver)/IC50 (Toxoplasma gondii
[5] = Selectivity ratio of IC50 (rat liver)/IC50 (Pneumocystis carinii)

Row | IC50 (Dihydrofolate reductase [2]) [µM] | IC50 (Dihydrofolate reductase [3]) [µM] | Selectivity ratio [5] | SMILES | IC50 [1] [µM] | Selectivity ratio [4]
1 | > 100 | 33 | – | COc1ccc(OC)c(NCc2c(Br)sc3nc(N)nc(N)c23)c1 | > 100 | –
2 | 7.5 | 10 | 1.4 | Nc1nc(N)c2c(CNc3cc(Cl)c(-n4cccc4)c(Cl)c3)c(Br)sc2n1 | 26 | 0.39
3 | > 10 | > 10 | – | COc1ccc(OC)c(N(C)Cc2c(Br)sc3nc(N)nc(N)c23)c1 | > 10 | –
4 | 0.031 | 0.015 | 0.048 | COc1cc(Cc2cnc(N)nc2N)cc(OC)c1Br [BRODIMOPRIM] | 0.017 | 0.088
5 | 13 | 17 | 1.2 | COc1cc(NCc2c(Br)sc3nc(N)nc(N)c23)cc(OC)c1OC | 34 | –
6 | 31 | 28 | 0.88 | COc1cc(N(C)Cc2c(Br)sc3nc(N)nc(N)c23)cc(OC)c1OC | 127 | –
